According to patent US20250002450A1, “CATIONIC STEROID COMPOUNDS, METHOD OF OBTAINING THEREOF, FORMULATIONS COMPRISING THEREOF AND THEIR USES” (UNIVERSIDADE DO PORTO, priority 2021, published 2025):

Tests used:
[1] = test system: marine biofilm-forming bacterial strains; conditions: cited from earlier work
[2] = test system: E. faecalis B3/101; experiment: Checkerboard synergy with VAN; type: cell-based, Enterococcus faecalis
Procedure: (§1) The combined effect of compound 1 and CTX for E. coli SA/2, VAN for E. faecalis B3/101, COL for E. coli 2252, erythromycin for E. coli ATCC 25922, and OXA for S. aureus 66/1 was evaluated by the checkerboard method. […] The interaction between compound 1 and erythromycin was assessed for E. coli ATCC 25922. Gram-negative bacteria are intrinsically resistant to erythromycin, a macrolide that inhibits protein synthesis, and cannot penetrate the outer membrane of Gram-negative bacteria, which is impermeable to hydrophobic antibiotics. Ascertain ceragenins have been previously described to be able to enhance the efficacy of such antibiotics, this possibility was investigated for compound 1 and a FICI of 0.6 was obtained.

[3] = test system: E. coli 2252; experiment: Checkerboard synergy with COL; type: cell-based, Escherichia coli
Procedure: as §1

[4] = test system: C. albicans ATCC 10231; experiment: Germ tube formation; type: cell-based, Candida albicans; conditions: 3 h
Procedure: The effect of compound 1 in germ tube formation of C. albicans ATCC 10231 was determined as previously described. Briefly, cell suspensions were prepared in NYP medium (N-acetylglucosamine [Sigma, St. Louis, MO, USA; 10-3 mol/L], yeast nitrogen base [Difco, New Jersey, USA; 3.35 g/L], proline [Fluka, Buchs, St. Gallen, Switzerland; 10^−3 mol/L], and NaCl [4.5 g/L], pH 6.7±0.1) and adjusted to a density of (1.0±0.2)×10^6 CFU/mL, as determined by cell counts using a haemocytometer. An appropriate volume of compound stock solution at 10 mg/mL was added to obtain final concentrations ranging between 64 and 8 μg/mL. Filamentation controls were included in each assay with and without 0.64% DMSO. Following a 3 h incubation at 37° C., 100 cells from each sample were counted, using a haemocytometer, and the percentage of germ tubes was determined. Three independent assays were performed.

[5] = test system: yeasts and filamentous fungi, including dermatophytes; experiment: Antifungal activity, whole strain panel; type: cell-based; conditions: all microorganisms tested (Table 2)
Procedure: The antifungal activity of compound 1 was evaluated for a wide range of fungal species, covering yeasts and filamentous fungi, including dermatophytes. […] This antimicrobial effect was fungicidal, with minimal lethal concentrations (MLC) being equal to, or one or two-fold higher than the respective MIC. Twenty-three fungal strains were used in this study, including reference strains and clinical isolates of yeasts and filamentous fungi. Yeast strains included reference strains (ATCC—American Type Culture Collection and CECT—Colección Española de Cultivos Tipo) and clinical isolates: C. albicans ATCC 10231, Candida krusei ATCC 6258, C. albicans H37, C. albicans FF172, C. albicans FF176, C. albicans DSY294, C. albicans DSY296, C. glabrata DSY562, C. glabrata DSY565 and Cryptococcus neoformans CECT 1078. […]
Antifungal activity was evaluated by determining the MIC of compound 1 by the broth microdilution method, according to CLSI guidelines (reference documents M27-A3 for yeasts and M38-A2 for filamentous fungi). […] The minimal lethal concentration (MLC) was determined by spreading 20 μL of culture collected from wells showing no visible growth on SDA plates. The MLC was determined as the lowest concentration showing complete growth inhibition after 48 h at 35 degrees C., 48 h at 25 degrees C. […]

SMILES: C[C@H](CCC(=O)NCCN)[C@H]1CC[C@H]2[C@@H]3CC[C@@H]4C[C@H](O)CC[C@]4(C)[C@H]3C[C@H](O)[C@]12C [Compound 1, (R)—N-(2-aminoethyl)-4-((3R,5R,8R,9S,10S,12S,13R,14S,17R)-3,12-dihydroxy-10,13-dimethylhexadecahydro-1H-cyclopenta[a]phenanthren-17-yl) pentanamida]
- activity against growth of marine biofilm-forming bacterial strains (in words) [1]: active
- combined effect with VAN (in words) [2]: No synergistic interactions
- combined effect with COL (in words) ([3]; checkerboard, E. coli 2252): No synergistic interactions
- fractional inhibitory concentration index (FICI) ([3]; with COL, E. coli 2252 (mcr-1)): 0.6
- dimorphic transition / germ tube formation (in words) ([4]; 64 μg/mL (MIC)): complete inhibition of dimorphic transition
- dimorphic transition / germ tube formation (in words) ([4]; 32 and 16 μg/mL (½×MIC and ¼×MIC)): significant inhibition
- spectrum of antifungal activity (in words) [5]: active against all microorganisms tested
